# Experimental data from ChEMBL document CHEMBL4715821, “Discovery of 4-ethoxy-7H-pyrrolo[2,3-d]pyrimidin-2-amines as potent, selective and orally bioavailable LRRK2 inhibitors” (Bioorg Med Chem Lett, 2018).
# Key:
# [1] = molecular target: RAC-alpha serine/threonine-protein kinase (Homo sapiens) (UniProt P31749); assay: Inhibition of wild-type human partial length AKT1 expressed in bacterial expression system assessed as residual activity at 1 uM by Kinomescan method relative to control
# [2] = molecular target: BDNF/NT-3 growth factors receptor (Homo sapiens) (UniProt Q16620); assay: Inhibition of wild-type human partial length TRKB (Q547 to G838 residues) expressed in mammalian expression system assessed as residual activity at 1 uM by Kinomescan method relative to control
# [3] = molecular target: Serine/threonine-protein kinase OSR1 (Homo sapiens) (UniProt O95747); assay: Inhibition of wild-type human full length OSR1 (M1 to S527 residues) expressed in mammalian expression system assessed as residual activity at 1 uM by Kinomescan method relative to control
# [4] = molecular target: Dual specificity tyrosine-phosphorylation-regulated kinase 1B (Homo sapiens) (UniProt Q9Y463); assay: Inhibition of wild-type human full length DYRK1B (M1 to S629 residues) expressed in bacterial expression system assessed as residual activity at 1 uM by Kinomescan method relative to control
# [5] = molecular target: Death-associated protein kinase 3 (Homo sapiens) (UniProt O43293); assay: Inhibition of wild-type human partial length DAPK3 (M1 to A277 residues) expressed in bacterial expression system assessed as residual activity at 1 uM by Kinomescan method relative to control
# [6] = molecular target: Myosin light chain kinase (Homo sapiens) (UniProt Q32MK0); assay: Inhibition of wild-type human partial length MLCK (D488 to K800 residues) expressed in bacterial expression system assessed as residual activity at 1 uM by Kinomescan method relative to control
# [7] = molecular target: Focal adhesion kinase 1 (Homo sapiens) (UniProt Q05397); assay: Inhibition of wild-type human partial length FAK (D402 to R696 residues) expressed in bacterial expression system assessed as residual activity at 1 uM by Kinomescan method relative to control
# [8] = molecular target: Dual specificity tyrosine-phosphorylation-regulated kinase 3 (Homo sapiens) (UniProt O43781); assay: Inhibition of DYRK3 (unknown origin) assessed as residual activity at 1 uM by Kinomescan method relative to control
# [9] = molecular target: Fibroblast growth factor receptor 1 (Homo sapiens) (UniProt P11362); assay: Inhibition of wild-type human partial length FGFR1 (P357 to V669 residues) expressed in bacterial expression system assessed as residual activity at 1 uM by Kinomescan method relative to control
# [10] = molecular target: Protein-tyrosine kinase 6 (Homo sapiens) (UniProt Q13882); assay: Inhibition of wild-type human partial length BRK (L166 to T451 residues) expressed in bacterial expression system assessed as residual activity at 1 uM by Kinomescan method relative to control
# [11] = molecular target: Serine/threonine-protein kinase Nek3 (Homo sapiens) (UniProt P51956); assay: Inhibition of wild-type human full length NEK3 (M1 to R506 residues) expressed in mammalian expression system assessed as residual activity at 1 uM by Kinomescan method relative to control
# [12] = molecular target: Serine/threonine-protein kinase 32C (Homo sapiens) (UniProt Q86UX6); assay: Inhibition of wild-type human partial length YANK3 (M68 to G486 residues) expressed in bacterial expression system assessed as residual activity at 1 uM by Kinomescan method relative to control
# [13] = molecular target: Mitogen-activated protein kinase kinase kinase kinase 4 (Homo sapiens) (UniProt O95819); assay: Inhibition of wild-type human partial length MAP4K4 (M1 to R310 residues) expressed in bacterial expression system assessed as residual activity at 1 uM by Kinomescan method relative to control
# [14] = molecular target: Ribosomal protein S6 kinase beta-1 (Homo sapiens) (UniProt P23443); assay: Inhibition of wild-type human partial length RPS6KB1 (M1 to S421 residues) expressed in mammalian expression system assessed as residual activity at 1 uM by Kinomescan method relative to control
# [15] = molecular target: Phosphorylase b kinase gamma catalytic chain, skeletal muscle/heart isoform (Homo sapiens) (UniProt Q16816); assay: Inhibition of wild-type human full length PHKG1 (M1 to Y387 residues) expressed in bacterial expression system assessed as residual activity at 1 uM by Kinomescan method relative to control
# [16] = molecular target: Tyrosine-protein kinase Lyn (Homo sapiens) (UniProt P07948); assay: Inhibition of wild-type human partial length LYN (C219 to Q511 residues) expressed in bacterial expression system assessed as residual activity at 1 uM by Kinomescan method relative to control
# [17] = molecular target: Serine/threonine-protein kinase MRCK alpha (Homo sapiens) (UniProt Q5VT25); assay: Inhibition of wild-type human partial length MRCKA (L57 to V418 residues) expressed in bacterial expression system assessed as residual activity at 1 uM by Kinomescan method relative to control
# [18] = molecular target: 3-phosphoinositide-dependent protein kinase 1 (Homo sapiens) (UniProt O15530); assay: Inhibition of PDK1 (unknown origin) assessed as residual activity at 1 uM by Kinomescan method relative to control
# [19] = molecular target: SRSF protein kinase 2 (Homo sapiens) (UniProt P78362); assay: Inhibition of wild-type human full length SRPK2 (M1 to S686 residues) expressed in bacterial expression system assessed as residual activity at 1 uM by Kinomescan method relative to control
# [20] = molecular target: Myosin light chain kinase (Homo sapiens) (UniProt Q32MK0); assay: Inhibition of MYLK3 (unknown origin) assessed as residual activity at 1 uM by Kinomescan method relative to control
# [21] = molecular target: cAMP-dependent protein kinase catalytic subunit beta (Homo sapiens) (UniProt P22694); assay: Inhibition of wild-type human full length PKAC-beta (M1 to F351 residues) expressed in bacterial expression system assessed as residual activity at 1 uM by Kinomescan method relative to control
# [22] = molecular target: Nuclear receptor subfamily 1 group I member 2 (Homo sapiens, UniProt O75469); assay: Inhibition of human PXR
# [23] = molecular target: STE20-like serine/threonine-protein kinase (Homo sapiens) (UniProt Q9H2G2); assay: Inhibition of wild-type human partial length SLK (S14 to A307 residues) expressed in bacterial expression system assessed as residual activity at 1 uM by Kinomescan method relative to control
# [24] = molecular target: Tyrosine-protein kinase receptor UFO (Homo sapiens) (UniProt P30530); assay: Inhibition of wild-type human partial length AXL (R497 to Y821 residues) expressed in bacterial expression system assessed as residual activity at 1 uM by Kinomescan method relative to control
# [25] = Unbound fraction in Han-Wistar rat brain at 10 mg/kg, po; assay type: ADME, organism-based
# [26] = molecular target: Casein kinase I isoform delta (Homo sapiens) (UniProt P48730); assay: Inhibition of CK1D (unknown origin) assessed as residual activity at 1 uM by Kinomescan method relative to control
# [27] = Ratio of total drug concentration in brain to blood in Han-Wistar rat at 10 mg/kg, po; assay type: ADME, organism-based
# [28] = In vivo inhibition of LRRK2 in C57BL6 mouse assessed as reduction in Ser935 phosphorylation in brain at 45 mg/kg, po after 1 hr by Western blot analysis; assay type: functional; set-up: scale not given: the % may be the effect or the level left
# Myosin light chain kinase (Homo sapiens), sequence (Q32MK0 whole entry, the tested form may be a part): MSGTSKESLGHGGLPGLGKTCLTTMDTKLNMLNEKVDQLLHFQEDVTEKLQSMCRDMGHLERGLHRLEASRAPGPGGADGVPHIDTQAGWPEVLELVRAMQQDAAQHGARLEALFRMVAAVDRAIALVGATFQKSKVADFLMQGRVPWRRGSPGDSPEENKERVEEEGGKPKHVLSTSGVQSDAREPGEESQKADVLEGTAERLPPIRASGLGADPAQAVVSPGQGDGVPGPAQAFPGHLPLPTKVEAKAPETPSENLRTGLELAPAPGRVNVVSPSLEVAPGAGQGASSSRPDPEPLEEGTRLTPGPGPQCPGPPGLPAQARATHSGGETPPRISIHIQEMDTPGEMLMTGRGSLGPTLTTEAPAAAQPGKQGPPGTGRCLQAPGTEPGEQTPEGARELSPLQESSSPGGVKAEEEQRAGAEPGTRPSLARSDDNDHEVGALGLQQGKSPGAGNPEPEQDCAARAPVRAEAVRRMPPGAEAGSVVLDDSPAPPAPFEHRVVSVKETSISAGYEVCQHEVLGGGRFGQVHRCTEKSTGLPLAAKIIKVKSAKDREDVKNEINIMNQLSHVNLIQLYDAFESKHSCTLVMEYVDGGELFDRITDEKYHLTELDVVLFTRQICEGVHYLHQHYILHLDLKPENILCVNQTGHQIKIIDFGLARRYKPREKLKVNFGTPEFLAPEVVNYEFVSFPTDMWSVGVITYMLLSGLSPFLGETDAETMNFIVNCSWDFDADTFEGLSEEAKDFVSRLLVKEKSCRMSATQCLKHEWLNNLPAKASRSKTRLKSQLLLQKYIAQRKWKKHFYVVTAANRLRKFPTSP
# Casein kinase I isoform delta (Homo sapiens), sequence (P48730 whole entry, looked up, canonical isoform): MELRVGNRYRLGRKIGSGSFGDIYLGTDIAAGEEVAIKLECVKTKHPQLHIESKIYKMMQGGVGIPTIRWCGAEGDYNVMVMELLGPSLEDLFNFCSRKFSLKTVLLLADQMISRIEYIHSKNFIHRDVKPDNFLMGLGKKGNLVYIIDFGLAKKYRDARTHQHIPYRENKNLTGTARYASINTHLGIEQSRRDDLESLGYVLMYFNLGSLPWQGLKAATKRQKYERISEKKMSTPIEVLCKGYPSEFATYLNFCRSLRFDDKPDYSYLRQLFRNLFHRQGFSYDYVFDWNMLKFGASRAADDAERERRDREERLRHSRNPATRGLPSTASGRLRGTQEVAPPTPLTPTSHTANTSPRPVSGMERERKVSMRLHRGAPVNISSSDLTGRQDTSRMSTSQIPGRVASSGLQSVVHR
# Tyrosine-protein kinase receptor UFO (Homo sapiens), sequence (P30530 whole entry, the tested form may be a part): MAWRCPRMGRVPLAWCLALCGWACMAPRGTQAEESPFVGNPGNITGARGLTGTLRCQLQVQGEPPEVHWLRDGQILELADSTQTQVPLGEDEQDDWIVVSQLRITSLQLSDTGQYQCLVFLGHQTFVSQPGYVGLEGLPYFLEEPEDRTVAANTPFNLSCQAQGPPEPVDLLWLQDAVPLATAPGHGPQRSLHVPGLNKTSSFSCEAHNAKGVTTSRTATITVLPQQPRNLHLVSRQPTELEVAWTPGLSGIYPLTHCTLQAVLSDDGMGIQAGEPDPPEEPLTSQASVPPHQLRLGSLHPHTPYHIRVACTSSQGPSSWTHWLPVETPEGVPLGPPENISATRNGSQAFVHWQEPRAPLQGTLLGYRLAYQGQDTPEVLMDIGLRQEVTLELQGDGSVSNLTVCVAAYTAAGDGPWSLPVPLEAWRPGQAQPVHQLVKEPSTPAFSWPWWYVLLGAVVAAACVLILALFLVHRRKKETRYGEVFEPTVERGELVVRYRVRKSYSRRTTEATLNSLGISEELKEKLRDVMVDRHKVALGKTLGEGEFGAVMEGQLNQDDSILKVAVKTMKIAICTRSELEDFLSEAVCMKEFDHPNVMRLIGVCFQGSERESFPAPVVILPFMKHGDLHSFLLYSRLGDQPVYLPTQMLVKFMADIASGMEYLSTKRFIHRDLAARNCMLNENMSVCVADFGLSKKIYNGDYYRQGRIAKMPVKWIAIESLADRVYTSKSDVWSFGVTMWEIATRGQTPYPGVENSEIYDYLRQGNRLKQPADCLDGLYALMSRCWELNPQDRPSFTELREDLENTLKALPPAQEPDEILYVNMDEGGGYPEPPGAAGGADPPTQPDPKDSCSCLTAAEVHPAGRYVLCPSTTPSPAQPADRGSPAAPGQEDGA
# Focal adhesion kinase 1 (Homo sapiens), sequence (Q05397 2-1052 limits assumed): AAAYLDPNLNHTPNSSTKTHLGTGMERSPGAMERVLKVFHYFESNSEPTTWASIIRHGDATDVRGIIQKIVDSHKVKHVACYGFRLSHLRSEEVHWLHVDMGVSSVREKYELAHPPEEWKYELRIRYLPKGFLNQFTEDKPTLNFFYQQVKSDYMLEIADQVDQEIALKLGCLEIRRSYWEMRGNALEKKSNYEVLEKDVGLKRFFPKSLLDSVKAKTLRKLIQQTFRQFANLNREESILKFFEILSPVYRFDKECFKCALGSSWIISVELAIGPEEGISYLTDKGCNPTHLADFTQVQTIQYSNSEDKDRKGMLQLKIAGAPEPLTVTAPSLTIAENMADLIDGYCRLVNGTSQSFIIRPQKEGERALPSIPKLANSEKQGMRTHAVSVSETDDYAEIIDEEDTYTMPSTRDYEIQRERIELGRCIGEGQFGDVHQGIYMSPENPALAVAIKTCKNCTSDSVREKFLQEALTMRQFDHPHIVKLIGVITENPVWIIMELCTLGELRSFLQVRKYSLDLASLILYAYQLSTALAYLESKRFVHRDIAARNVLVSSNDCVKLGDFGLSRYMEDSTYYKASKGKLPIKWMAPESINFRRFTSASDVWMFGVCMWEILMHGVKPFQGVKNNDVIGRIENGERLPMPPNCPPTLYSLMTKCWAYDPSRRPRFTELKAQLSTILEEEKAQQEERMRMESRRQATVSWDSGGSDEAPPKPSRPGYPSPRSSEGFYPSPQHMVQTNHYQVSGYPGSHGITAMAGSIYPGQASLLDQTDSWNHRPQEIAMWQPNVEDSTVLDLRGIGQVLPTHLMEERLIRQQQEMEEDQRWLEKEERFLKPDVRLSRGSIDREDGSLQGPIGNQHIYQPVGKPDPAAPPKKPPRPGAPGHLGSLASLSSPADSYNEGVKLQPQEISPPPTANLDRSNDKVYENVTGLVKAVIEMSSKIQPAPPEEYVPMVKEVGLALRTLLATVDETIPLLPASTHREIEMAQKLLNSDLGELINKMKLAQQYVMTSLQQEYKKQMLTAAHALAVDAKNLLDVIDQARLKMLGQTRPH
# Serine/threonine-protein kinase OSR1 (Homo sapiens), sequence (O95747 whole entry, looked up, the tested form may be a part): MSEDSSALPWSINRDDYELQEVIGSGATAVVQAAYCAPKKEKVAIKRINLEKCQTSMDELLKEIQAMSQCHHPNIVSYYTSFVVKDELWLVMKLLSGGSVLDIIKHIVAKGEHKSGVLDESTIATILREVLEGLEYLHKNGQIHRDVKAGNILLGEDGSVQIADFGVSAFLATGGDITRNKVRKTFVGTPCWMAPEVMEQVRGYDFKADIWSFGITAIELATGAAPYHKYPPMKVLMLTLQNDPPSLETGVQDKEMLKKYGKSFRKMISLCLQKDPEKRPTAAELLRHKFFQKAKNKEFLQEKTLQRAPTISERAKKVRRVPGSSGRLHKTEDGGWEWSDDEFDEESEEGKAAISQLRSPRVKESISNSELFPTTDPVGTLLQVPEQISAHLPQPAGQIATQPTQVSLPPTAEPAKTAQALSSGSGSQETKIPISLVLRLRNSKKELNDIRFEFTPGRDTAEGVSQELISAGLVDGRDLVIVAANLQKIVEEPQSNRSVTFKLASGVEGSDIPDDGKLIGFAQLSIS
# Tyrosine-protein kinase Lyn (Homo sapiens), sequence (P07948 2-512 limits assumed): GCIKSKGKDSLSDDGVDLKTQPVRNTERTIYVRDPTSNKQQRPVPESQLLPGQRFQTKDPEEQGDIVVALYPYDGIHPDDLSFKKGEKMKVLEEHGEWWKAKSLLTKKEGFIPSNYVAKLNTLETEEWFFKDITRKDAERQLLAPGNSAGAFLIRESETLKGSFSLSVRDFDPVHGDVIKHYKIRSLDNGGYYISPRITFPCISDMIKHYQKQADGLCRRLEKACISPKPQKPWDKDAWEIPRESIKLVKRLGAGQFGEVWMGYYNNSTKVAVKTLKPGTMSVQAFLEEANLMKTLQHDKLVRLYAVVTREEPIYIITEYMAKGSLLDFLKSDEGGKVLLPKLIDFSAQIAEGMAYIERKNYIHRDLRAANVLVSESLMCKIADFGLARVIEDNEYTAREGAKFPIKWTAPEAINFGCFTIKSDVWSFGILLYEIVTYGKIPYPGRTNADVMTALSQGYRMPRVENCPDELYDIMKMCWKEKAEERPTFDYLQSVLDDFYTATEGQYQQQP
# Nuclear receptor subfamily 1 group I member 2, sequence (O75469 whole entry, the tested form may be a part): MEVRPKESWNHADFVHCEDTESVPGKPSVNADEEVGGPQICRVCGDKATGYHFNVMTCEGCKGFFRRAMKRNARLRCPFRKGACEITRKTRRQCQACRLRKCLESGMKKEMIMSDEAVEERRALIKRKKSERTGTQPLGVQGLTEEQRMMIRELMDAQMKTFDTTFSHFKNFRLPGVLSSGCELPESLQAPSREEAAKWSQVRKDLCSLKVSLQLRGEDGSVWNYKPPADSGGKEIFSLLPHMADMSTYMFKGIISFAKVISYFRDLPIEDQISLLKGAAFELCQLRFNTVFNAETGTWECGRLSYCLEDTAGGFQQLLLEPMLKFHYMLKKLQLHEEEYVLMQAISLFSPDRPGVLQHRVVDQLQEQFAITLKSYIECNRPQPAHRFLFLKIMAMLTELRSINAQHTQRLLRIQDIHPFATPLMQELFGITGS
# Phosphorylase b kinase gamma catalytic chain, skeletal muscle/heart isoform (Homo sapiens), sequence (Q16816 whole entry, looked up, the tested form may be a part, canonical isoform): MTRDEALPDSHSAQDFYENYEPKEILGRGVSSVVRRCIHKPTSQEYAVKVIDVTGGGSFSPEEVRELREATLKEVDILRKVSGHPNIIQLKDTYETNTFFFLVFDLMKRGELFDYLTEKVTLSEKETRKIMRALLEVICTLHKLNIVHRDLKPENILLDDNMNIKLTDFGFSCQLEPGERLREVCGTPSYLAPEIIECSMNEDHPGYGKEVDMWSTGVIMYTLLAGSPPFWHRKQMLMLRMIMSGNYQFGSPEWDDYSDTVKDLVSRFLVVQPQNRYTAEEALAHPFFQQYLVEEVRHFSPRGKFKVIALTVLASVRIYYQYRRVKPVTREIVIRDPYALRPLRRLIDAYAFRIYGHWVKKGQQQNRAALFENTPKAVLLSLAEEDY
compound,measurement,setting,value
CCOc1nc(Nc2ccc(C(=O)N3CCOCC3)cc2OC)nc2[nH]ccc12,Activity,[1],104%
same,Activity,[2],102%
same,Activity,[3],101%
same,Activity,[4],66.9%
same,Activity,[5],66.9%
same,Activity,[6],15.8%
same,Activity,[7],39.5%
same,Activity,[8],96.4%
same,Activity,[9],90.7%
same,Activity,[10],45.6%
same,Activity,[11],104%
same,Activity,[12],107%
same,Activity,[13],95.6%
same,Activity,[14],104%
same,Activity,[15],34.3%
same,Activity,[16],99.7%
same,Activity,[17],99.4%
same,Activity,[18],93.1%
same,Activity,[19],82%
same,Activity,[20],96.9%
same,Activity,[21],93.3%
same,EC50,[22],> 50.1 µM
same,Activity,[23],109%
same,Activity,[24],93.9%
same,fraction unbound,[25],0.01
same,Activity,[26],80.2%
same,Kp,[27],0.24
same,Activity,[28],50%
